Assay results reported in US5210193A, “Piperazine derivatives” (American Cyanamid Company, priority 1990, dated 1993).
Converted amounts (≈) assume the structure as drawn.

How the values were obtained:
Assay in all cases: in vitro antibacterial MIC, agar plate dilution
Format in all cases: cell-based
[1] = tested on: Streptococcus faecalis ATTC 29212; conditions: Enterococcus faecalis, ATTC29212, 18 hours, 35° C., read-out: MIC
Summary of the method: (§1)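 Agar plate dilution on Mueller-Hinton agar, inoculum about 10^4 CFU per spot applied with a Steers replicator. MIC (mcg/ml) is the lowest compound concentration preventing visible growth after 18 h at 35 °C.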

[2] = tested on: Pseudomonas aeruginosa VGH 84-4; conditions: Pseudomonas aeruginosa, VGH844, 18 h, 35° C., read-out: MIC
Summary of the method: as §1

[3] = tested on: Staphylococcus aureus VGH 84-45; conditions: Staphylococcus aureus, VGH8445, 18 h, 35° C., read-out: MIC
Summary of the method: as §1

[4] = tested on: Escherichia coli ATCC 25922; conditions: Escherichia coli, ATCC25922, 18 h, 35° C., read-out: MIC
Summary of the method: as §1

[5] = tested on: Proteus rettgeri CMC 84-41; conditions: Providencia rettgeri, CMC8441, 18 h, 35° C., read-out: MIC
Summary of the method: as §1

[6] = tested on: Staphylococcus aureus CMC 83-128; conditions: CMC83128, 18 hours, 35° C., read-out: MIC
Summary of the method: as §1

[7] = tested on: Staphylococcus aureus ATTC 29213; conditions: Staphylococcus aureus, ATTC29213, 18 h, 35° C., read-out: MIC
Summary of the method: as §1

Klebsiella pneumoniae AD = conditions: Klebsiella pneumoniae, 18 h, 35° C., read-out: MIC
Summary of the method: as §1

[8] = tested on: Staphylococcus aureus CMC 83-127; conditions: Staphylococcus aureus, CMC83127, 18 h, 35° C., read-out: MIC
Summary of the method: as §1

[9] = tested on: Klebsiella oxytoca MOR 84-28; conditions: MOR8428, 18 hours, 35° C.
Summary of the method: as §1

[10] = tested on: Staphylococcus epidermidis VGH 84-40; conditions: VGH8440, 18 hours, 35° C., read-out: MIC
Summary of the method: as §1

[11] = tested on: Escherichia coli CMC 84-11; conditions: Escherichia coli, CMC8411, 18 h, 35° C., read-out: MIC
Summary of the method: as §1

[12] = tested on: Pseudomonas aeruginosa LL-1244; conditions: Pseudomonas aeruginosa, LL1244, 18 h, 35° C., read-out: MIC
Summary of the method: as §1

[13] = tested on: Escherichia coli CMC 84-16; conditions: Escherichia coli, CMC8416, 18 h, 35° C., read-out: MIC
Summary of the method: as §1

[14] = tested on: Klebsiella pneumoniae MOR 84-4; conditions: Klebsiella pneumoniae, MOR844, 18 h, 35° C., read-out: MIC
Summary of the method: as §1

[15] = tested on: Staphylococcus epidermidis CMC 83-135; conditions: CMC83135, 18 hours, 35° C., read-out: MIC
Summary of the method: as §1

[16] = tested on: Enterobacter cloacae VGH 84-37; conditions: Enterobacter cloacae, VGH8437, 18 h, 35° C., read-out: MIC
Summary of the method: as §1

[17] = tested on: Serratia marcescens F 0-35; conditions: Serratia marcescens, F035, 18 h, 35° C., read-out: MIC
Summary of the method: as §1

Escherichia coli NAR 311 = conditions: NAR311, 18 hours, 35° C., read-out: MIC
Summary of the method: as §1

[18] = tested on: Staphylococcus epidermidis IO 83-58; conditions: IO8358, 18 hours, 35° C., read-out: MIC
Summary of the method: as §1

[19] = tested on: Staphylococcus Spp saprophiticus VGH 84-50; conditions: 18 hours, 35° C., read-out: MIC
Summary of the method: as §1

[20] = tested on: Morganella morganii CMC 84-37; conditions: Morganella morganii, CMC8437, 18 h, 35° C., read-out: MIC
Summary of the method: as §1

[21] = tested on: Serratia marcescens K 84-18; conditions: Serratia marcescens, K8418, 18 h, 35° C., read-out: MIC
Summary of the method: as §1

[22] = tested on: Enterobacter cloacae K 84-10; conditions: Enterobacter cloacae, K8410, 18 h, 35° C., read-out: MIC
Summary of the method: as §1

[23] = tested on: Escherichia coli PRNT 311; conditions: PRNT311, 18 hours, 35° C., read-out: MIC
Summary of the method: as §1

[24] = tested on: Acinetobacter calcoaceticus MOR 84-43; conditions: MOR8443, 18 hours, 35° C., read-out: MIC
Summary of the method: as §1

[25] = tested on: Staphylococcus aureus Smith; conditions: Staphylococcus aureus, 18 h, 35° C., read-out: MIC
Summary of the method: as §1

[26] = tested on: Streptococcus faecalis VGH 84-65; conditions: Enterococcus faecalis, VGH8465, 18 h, 35° C., read-out: MIC
Summary of the method: as §1

[27] = tested on: Staphylococcus aureus VGH 84-46; conditions: Staphylococcus aureus, VGH8446, 18 h, 35° C., read-out: MIC
Summary of the method: as §1

[28] = tested on: Morganella morganii VGH 84-11; conditions: VGH8411, 18 hours, 35° C., read-out: MIC
Summary of the method: as §1

[29] = tested on: Enterobacter aerogenes VGH 84-36; conditions: Klebsiella aerogenes, VGH8436, 18 hours, 35° C., read-out: MIC
Summary of the method: as §1

Row | Compound | MIC [1] | MIC [3] | MIC [4] | MIC [5] | MIC [6] | MIC [7] | MIC (Klebsiella pneumoniae AD) | MIC [8] | MIC [9] | MIC [10] | MIC [11] | MIC [12] | MIC [13] | MIC [14] | MIC [15] | MIC [16] | MIC [17] | MIC (Escherichia coli NAR 311) | MIC [18] | MIC [19] | further results
1 | CCn1cc(C(=O)O)c(=O)c2cc(F)c(N3CCN(C)C(c4cc5cc(Cl)ccc5o4)C3)cc21 (centres unmarked) [Example 55, 7-[3-(5-Chloro-2-benzofuranyl)-4-methyl-1-piperazinyl]-1-ethyl-6-fluoro-1,4-dihydro-4-oxo-3-quinolinecarboxylic acid] | > 256 µg/mL | 16 µg/mL (≈ 33.1 µM) | > 256 µg/mL | > 256 µg/mL | 16 µg/mL (≈ 33.1 µM) | 64 µg/mL (≈ 132 µM) | > 256 µg/mL | 8 µg/mL (≈ 16.5 µM) | > 256 µg/mL | 32 µg/mL (≈ 66.1 µM) | > 256 µg/mL | > 256 µg/mL | > 256 µg/mL | > 256 µg/mL | 64 µg/mL (≈ 132 µM) | > 256 µg/mL | > 256 µg/mL | > 256 µg/mL | 128 µg/mL (≈ 265 µM) | > 256 µg/mL | MIC [2]: > 256 µg/mL; MIC [20]: > 256 µg/mL; MIC [21]: > 256 µg/mL; MIC [22]: > 256 µg/mL; MIC [23]: > 256 µg/mL; MIC [24]: > 256 µg/mL; MIC [25]: 16 µg/mL (≈ 33.1 µM); MIC [26]: > 256 µg/mL; MIC [27]: 32 µg/mL (≈ 66.1 µM); MIC [28]: > 256 µg/mL; MIC [29]: > 256 µg/mL
2 | CCn1cc(C(=O)O)c(=O)c2c(F)c(F)c(N3CCN(C)CC3)c(F)c21 [Example 85, 1-Ethyl-5,6,8-trifluoro-1,4-dihydro-7-(4-methyl-1-piperazinyl) -4-oxo-3-quinolinecarboxylic acid] | 8 µg/mL (≈ 21.7 µM) | 1 µg/mL (≈ 2.71 µM) | 0.12 µg/mL (≈ 0.325 µM) | 0.5 µg/mL (≈ 1.35 µM) | 2 µg/mL (≈ 5.42 µM) | 2 µg/mL (≈ 5.42 µM) | 0.25 µg/mL (≈ 0.677 µM) | 0.5 µg/mL (≈ 1.35 µM) | 1 µg/mL (≈ 2.71 µM) | 1 µg/mL (≈ 2.71 µM) | 0.12 µg/mL (≈ 0.325 µM) | 16 µg/mL (≈ 43.3 µM) | 0.06 µg/mL (≈ 0.162 µM) | 0.5 µg/mL (≈ 1.35 µM) | 2 µg/mL (≈ 5.42 µM) | 0.12 µg/mL (≈ 0.325 µM) | 0.5 µg/mL (≈ 1.35 µM) | 4 µg/mL (≈ 10.8 µM) | 1 µg/mL (≈ 2.71 µM) | 8 µg/mL (≈ 21.7 µM) | MIC [2]: 4 µg/mL (≈ 10.8 µM); MIC [20]: 0.12 µg/mL (≈ 0.325 µM); MIC [21]: 0.5 µg/mL (≈ 1.35 µM); MIC [22]: 0.12 µg/mL (≈ 0.325 µM); MIC [23]: 0.12 µg/mL (≈ 0.325 µM); MIC [24]: 1 µg/mL (≈ 2.71 µM); MIC [25]: 1 µg/mL (≈ 2.71 µM); MIC [26]: 16 µg/mL (≈ 43.3 µM); MIC [27]: 1 µg/mL (≈ 2.71 µM); MIC [28]: 0.12 µg/mL (≈ 0.325 µM); MIC [29]: 0.5 µg/mL (≈ 1.35 µM)
3 | CN1CCN(c2cc3c(cc2F)c(=O)c(C(=O)O)cn3C2CC2)CC1c1ccsc1 (centres unmarked) [Example 66, 1-Cyclopropyl-6-fluoro-1,4-dihydro-4-oxo-7-[4-methyl-3-(3-thienyl)-1-piperazinyl]-3-quinolinecarboxylic acid] | 0.5 µg/mL (≈ 1.17 µM) | 0.03 µg/mL (≈ 0.0702 µM) | 0.12 µg/mL (≈ 0.281 µM) | 1 µg/mL (≈ 2.34 µM) | 0.03 µg/mL (≈ 0.0702 µM) | 0.25 µg/mL (≈ 0.585 µM) | 0.25 µg/mL (≈ 0.585 µM) | 0.03 µg/mL (≈ 0.0702 µM) | 0.12 µg/mL (≈ 0.281 µM) | 0.06 µg/mL (≈ 0.14 µM) | 0.12 µg/mL (≈ 0.281 µM) | 16 µg/mL (≈ 37.4 µM) | 0.06 µg/mL (≈ 0.14 µM) | 0.5 µg/mL (≈ 1.17 µM) | 0.06 µg/mL (≈ 0.14 µM) | 0.25 µg/mL (≈ 0.585 µM) | 2 µg/mL (≈ 4.68 µM) | 0.5 µg/mL (≈ 1.17 µM) | 0.06 µg/mL (≈ 0.14 µM) | 0.06 µg/mL (≈ 0.14 µM) | MIC [20]: 0.5 µg/mL (≈ 1.17 µM); MIC [21]: 2 µg/mL (≈ 4.68 µM); MIC [22]: 0.12 µg/mL (≈ 0.281 µM); MIC [23]: 0.5 µg/mL (≈ 1.17 µM); MIC [24]: 8 µg/mL (≈ 18.7 µM); MIC [25]: 0.06 µg/mL (≈ 0.14 µM); MIC [26]: 0.25 µg/mL (≈ 0.585 µM); MIC [27]: 0.06 µg/mL (≈ 0.14 µM); MIC [28]: 1 µg/mL (≈ 2.34 µM); MIC [29]: 2 µg/mL (≈ 4.68 µM)
4 | O=C(O)c1cn(-c2ccc(F)cc2)c2cc(N3CCNC(c4ccco4)C3)c(F)cc2c1=O (centres unmarked) [Example 67, 6-Fluoro-1-(4-fluorophenyl)-7-[3-(2-furanyl)-1-piperazinyl]-1,4-dihydro-4-oxo-3-quinolinecarboxylic acid] | 0.5 µg/mL (≈ 1.11 µM) | 0.03 µg/mL (≈ 0.0665 µM) | 0.12 µg/mL (≈ 0.266 µM) | 1 µg/mL (≈ 2.22 µM) | 0.06 µg/mL (≈ 0.133 µM) | 0.06 µg/mL (≈ 0.133 µM) | 0.25 µg/mL (≈ 0.554 µM) | 0.03 µg/mL (≈ 0.0665 µM) | 0.12 µg/mL (≈ 0.266 µM) | 0.06 µg/mL (≈ 0.133 µM) | 0.12 µg/mL (≈ 0.266 µM) | 4 µg/mL (≈ 8.86 µM) | 0.12 µg/mL (≈ 0.266 µM) | 0.5 µg/mL (≈ 1.11 µM) | 0.06 µg/mL (≈ 0.133 µM) | 0.25 µg/mL (≈ 0.554 µM) | 2 µg/mL (≈ 4.43 µM) | 2 µg/mL (≈ 4.43 µM) | 0.06 µg/mL (≈ 0.133 µM) | 0.25 µg/mL (≈ 0.554 µM) | MIC [20]: 1 µg/mL (≈ 2.22 µM); MIC [21]: 1 µg/mL (≈ 2.22 µM); MIC [22]: 0.25 µg/mL (≈ 0.554 µM); MIC [23]: 0.25 µg/mL (≈ 0.554 µM); MIC [24]: 0.12 µg/mL (≈ 0.266 µM); MIC [25]: 0.03 µg/mL (≈ 0.0665 µM); MIC [26]: 1 µg/mL (≈ 2.22 µM); MIC [27]: 0.03 µg/mL (≈ 0.0665 µM); MIC [28]: 1 µg/mL (≈ 2.22 µM); MIC [29]: 1 µg/mL (≈ 2.22 µM)
